Assay results taken from patent US20210163453A1, “DERIVATIVES OF PAPAVERINE THAT ARE EFFECTIVE HYPOXIC TUMOR RADIOSENSITIZERS” (Ohio State Innovation Foundation, priority 2018, published 2021).
Entries after “also recorded” stand apart in the source; their conditions may differ.

Legend:
PDE10A = molecular target: T1, PDE10A (Homo sapiens, UniProt Q9Y233); assay: PDE10A enzymatic assay (PDE10A activity assay kit, BPS Bioscience); format: biochemical; conditions: for Inhibitory activity PDE10A % of PPV: PDE10A inhibition at 1 μM, normalized to PPV
T1 construct: purchased BPS Bioscience
Protocol: FIGS. 7A-7D show OCR and cellular toxicity data. […] Bars represent mean OCR and PDE10 inhibitory activities from at least 5 (OCR) or 3 (PDE) replicates. All experiments were repeated at least twice. […] Values are mean+−SEM. […]
The structure activity relationship of PPV relative to two assays was assessed: inhibition of cellular OCR by Seahorse, and inhibition of PDE10A by purified enzyme activity in multiwell plate (PDE10A activity assay kit, BPS Bioscience). […] These lead compounds were synthesized from commercial precursors and purified on silica gel column.

mitochondrial complex 1 = assay: Seahorse OCR inhibition of PPV derivatives, normalized to PPV; format: cell-based; conditions: Seahorse; for Inhibitory activity OCR % of PPV: OCR inhibition at 10 μM concentration, normalized to PPV
Protocol: FIGS. 7A-7D show OCR and cellular toxicity data. […]. Bars represent mean OCR and PDE10 inhibitory activities from at least 5 (OCR) or 3 (PDE) replicates. All experiments were repeated at least twice. […] Values are mean+−SEM.
(§1) Seahorse analysis of the OCR. Oxygen consumption rate (OCR) was measured using Seahorse XF96 Flux Analyzer (Agilent Technologies). The cells were seeded to attach overnight, wells were washed with pre-warmed XF Calibrant (Agilent Technologies) and the replaced with unbuffered Assay Medium (pH 7.4, 5 mM glucose, 1 mM L-glutamine). The plates were incubated at 37° C. in a CO2-free incubator for 2 hours prior to assay. For succinate rescue assay, cells were permeabilized using XF Plasma Membrane Permeabilizer Reagent (XF PMP, Agilent Technologies) according to the manufacturer's instructions. The OCR rate was measured in 1× Mitochondrial Assay Solution (MAS) (70 mM sucrose, 220 mM mannitol, 10 mM KH2PO4, 5 mM MgCl2, 2 mM Hepes, 0.6% (w/v) fatty acid-free BSA and 1 mM EGTA; pH 7.4). After baseline oxygenation was established, 1 μM rotenone or 10 μM PPV was injected at time A, followed by 5 mM succinate at time B. Error bars represent standard deviation. For the washout experiment, EO771 cells were seeded overnight, then treated with 10 μM PPV or 1 μM rotenone 3 hours prior to OCR measurement. Media was replaced 1 and 2 hours before measurement and OCR reported.
Because PPV's effect on mitochondrial function is independent of cAMP levels it was reasoned that there are two activities in PPV, one inhibiting complex 1 and one inhibiting PDE10A that may reside in different parts of the molecule. The structure activity relationship of PPV relative to two assays was assessed: inhibition of cellular OCR by Seahorse, and inhibition of PDE10A by purified enzyme activity in multiwell plate (PDE10A activity assay kit, BPS Bioscience). Because PPV can compete with rotenone as complex 1 inhibitors, it was reasoned that they may be binding the same site and therefore the structures would be similar relative to the mitochondrial binding target. […] Because the top was a planar structure similar to that of rotenone, and they compete with each other for the same binding pocket on complex 1 (FIG. 10) the lower portion of the molecule and how it may resemble rotenone were investigated in more detail. It was established that flexible linkage was preferred for mitochondrial activity and bulky adducts to the lower benzene ring may block it (FIG. 7C). […] These lead compounds were synthesized from commercial precursors and purified on silica gel column. Structures were confirmed by ^1H NMR and found to be >95% pure by HPLC.

[1] = system: oxygen consumption (mitochondrial function); assay: Seahorse XF analysis of oxygen consumption in vitro, cell line not stated; format: cell-based
Protocol: as §1

A549 cells = assay: Seahorse OCR in A549 cells (dose response, IC50, washout); format: cell-based, Human; conditions: 1 μM rotenone, media replaced
[2] = system: A549 NDUFV1 KO NDI1 cells; format: cell-based, Human; conditions: 10 μM papaverine or 1 μM rotenone

T1 sequence (Q9Y233 267-1055): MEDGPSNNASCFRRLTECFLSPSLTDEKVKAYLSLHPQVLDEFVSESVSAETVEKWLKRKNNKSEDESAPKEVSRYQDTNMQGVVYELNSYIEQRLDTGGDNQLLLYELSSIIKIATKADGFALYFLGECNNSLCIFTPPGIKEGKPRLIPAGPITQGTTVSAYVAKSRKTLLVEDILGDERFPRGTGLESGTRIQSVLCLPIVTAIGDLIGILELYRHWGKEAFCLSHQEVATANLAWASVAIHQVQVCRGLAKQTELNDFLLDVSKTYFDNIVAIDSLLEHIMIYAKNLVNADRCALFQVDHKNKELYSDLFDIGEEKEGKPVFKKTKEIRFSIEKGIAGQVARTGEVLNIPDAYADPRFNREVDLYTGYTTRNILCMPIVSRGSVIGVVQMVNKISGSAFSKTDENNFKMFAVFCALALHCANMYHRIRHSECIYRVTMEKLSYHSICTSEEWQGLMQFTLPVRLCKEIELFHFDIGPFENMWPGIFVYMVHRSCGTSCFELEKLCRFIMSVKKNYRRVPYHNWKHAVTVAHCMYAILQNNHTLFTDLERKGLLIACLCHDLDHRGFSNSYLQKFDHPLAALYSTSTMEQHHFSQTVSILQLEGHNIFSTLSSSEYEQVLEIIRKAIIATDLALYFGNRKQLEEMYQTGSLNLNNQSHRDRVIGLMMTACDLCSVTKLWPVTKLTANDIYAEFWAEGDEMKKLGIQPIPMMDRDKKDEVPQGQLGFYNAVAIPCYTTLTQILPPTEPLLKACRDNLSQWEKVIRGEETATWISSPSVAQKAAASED

Row | Inhibitory activity PDE10A % of PPV (PDE10A) | Compound | Inhibitory activity OCR % of PPV (mitochondrial complex 1) | also measured
1 | 12.77 % of PPV | COc1cc2c(cc1OC)C(Cc1ccc3c(c1)OCO3)=NCC2 | 5.55 % of PPV | –
2 | 51.12 % of PPV | COc1cc2ccnc(C(=O)c3ccc4c(c3)OCO4)c2cc1OC | 5.55 % of PPV | –
3 | 67.90 % of PPV | COc1cc2ccnc(C(O)c3ccc4c(c3)OCO4)c2cc1OC (centres unmarked) | 12.96 % of PPV | –
4 | 72.86 % of PPV | COc1cc2ccnc(C(O)c3cc(OC)c(OC)c(OC)c3)c2cc1OC (centres unmarked) | 34.09 % of PPV | –
5 | 79.93 % of PPV | COc1ccc(Cc2nccc3cc(OC)c(OC)cc23)cc1 | 36.36 % of PPV | –
6 | 65.88 % of PPV | COc1ccc(C(=O)c2nccc3cc(OC)c(OC)cc23)cc1 | 29.55 % of PPV | –
7 | 26.28 % of PPV | COc1cc2ccnc(C(=O)c3ccccc3)c2cc1OC | 0 % of PPV | –
8 | 23.60 % of PPV | COc1cc2ccnc(C(O)c3ccccc3)c2cc1OC (centres unmarked) | 12.07 % of PPV | –
9 | 73.33 % of PPV | C=C(C)COc1c(C)cc(C(O)c2nccc3cc(OC)c(OC)cc23)cc1C (centres unmarked) | 84.42 % of PPV | –
10 | 50.92 % of PPV | COc1cc2ccnc(C(=O)c3cc(C)c(OC)c(C)c3)c2cc1OC | 0 % of PPV | –
11 | 59.69 % of PPV | C=C(C)COc1c(C)cc(Cc2nccc3cc(OC)c(OC)cc23)cc1C | 74.81 % of PPV | –
12 | 37.27 % of PPV | COc1cc2c(cc1OC)C(Cc1cc(C)c(OC)c(C)c1)=NCC2 | 14.81 % of PPV | –
13 | 40.00 % of PPV | COc1cc2c(cc1OC)C(Cc1cc(C)cc(C)c1)=NCC2 | 30.09 % of PPV | –
14 | 0 % of PPV | COc1cc2ccnc(C(O)c3cc(C)cc(C)c3)c2cc1OC (centres unmarked) | 23.40 % of PPV | –
15 | 10.28 % of PPV | COc1cc2ccnc(Cc3cc(C(F)(F)F)cc(C(F)(F)F)c3)c2cc1OC | 33.4 % of PPV | –
16 | 16.58 % of PPV | COc1cc2ccnc(C(O)c3cc(C(F)(F)F)cc(C(F)(F)F)c3)c2cc1OC (centres unmarked) | 48.27 % of PPV | –
17 | 100 % of PPV | COc1cc2ccnc(Cc3ccc4ccccc4c3)c2cc1OC | 35.99 % of PPV | –
18 | 70.84 % of PPV | COc1cc2ccnc(C(O)c3ccc4ccccc4c3)c2cc1OC (centres unmarked) | 29.26 % of PPV | –
19 | 0 % of PPV | COc1cc2ccnc(C(=O)c3cccc4ccccc34)c2cc1OC | 31.91 % of PPV | –
20 | 20.16 % of PPV | COc1ccc(CCc2nccc3cc(OC)c(OC)cc23)cc1OC | 5.94 % of PPV | –
21 | 69.55 % of PPV | COc1ccc(-c2nccc3cc(OC)c(OC)cc23)cc1OC | 3.64 % of PPV | –
22 | 17.18 % of PPV | COc1ccc(OCc2nccc3cc(OC)c(OC)cc23)cc1OC | 72.05 % of PPV | –
23 | 0 % of PPV | COc1cc2ccncc2cc1OC [DMIQ, reference compound] | 0 % of PPV | activity in PDE10A assay (PDE10A; purified enzyme): inactive; activity in cellular OCR assay (mitochondrial complex 1): inactive

Second part, the molecule before the results:

Row | Compound | Inhibitory activity PDE10A % of PPV (PDE10A) | Inhibitory activity OCR % of PPV (mitochondrial complex 1) | also measured
24 | COc1cc2ccnc(Cc3ccc4c(c3)OCO4)c2cc1OC | 69.54 % of PPV | 11.11 % of PPV | –
25 | COc1cc2ccnc(C(=O)c3cc(OC)c(OC)c(OC)c3)c2cc1OC | 63.39 % of PPV | 13.63 % of PPV | –
26 | COc1cc2ccnc(Cc3cc(OC)c(OC)c(OC)c3)c2cc1OC | 37.37 % of PPV | 34.09 % of PPV | –
27 | COc1ccc(C(O)c2nccc3cc(OC)c(OC)cc23)cc1 (centres unmarked) | 35.44 % of PPV | 70.45 % of PPV | –
28 | C=C(C)COc1c(C)cc(C(=O)c2nccc3cc(OC)c(OC)cc23)cc1C | 74.38 % of PPV | 15.51 % of PPV | –
29 | COc1cc2ccnc(Cc3cc(C)c(O)c(C)c3)c2cc1OC | 85.02 % of PPV | 5.86 % of PPV | –
30 | COc1cc2ccnc(Cc3cc(C)c(OC)c(C)c3)c2cc1OC | 64.65 % of PPV | 91.18 % of PPV | –
31 | COc1cc2ccnc(C(O)c3cc(C)c(OC)c(C)c3)c2cc1OC (centres unmarked) | 29.18 % of PPV | 10.35 % of PPV | –
32 | COc1cc2ccnc(Cc3cc(C)c(OCC(C)C)c(C)c3)c2cc1OC | 29.13 % of PPV | 72.88 % of PPV | –
33 | COc1cc2ccnc(C(=O)c3cc(C)cc(C)c3)c2cc1OC | 30.52 % of PPV | 9.26 % of PPV | –
34 | COc1cc2ccnc(C(=O)c3cc(C(F)(F)F)cc(C(F)(F)F)c3)c2cc1OC | 17.69 % of PPV | 0 % of PPV | –
35 | COc1cc2ccnc(C(=O)c3ccc4ccccc4c3)c2cc1OC | 0 % of PPV | 4.34 % of PPV | –
36 | COc1cc2ccnc(C(O)c3cccc4ccccc34)c2cc1OC (centres unmarked) | 24.24 % of PPV | 18 % of PPV | –
37 | COc1cc2ccnc(COc3cccc4ccccc34)c2cc1OC | – | 14.19 % of PPV | –
38 | COc1cc2ccnc(Cc3ccc(C)c(C)c3)c2cc1OC | – | 17.43 % of PPV | –
39 | COc1cc2ccnc(C(=O)c3ccc(C)c(C)c3)c2cc1OC | – | 9.64 % of PPV | –
40 | COc1cc2ccnc(C(O)c3ccc(C)c(C)c3)c2cc1OC (centres unmarked) | – | 22.69 % of PPV | –
41 | CN(C)C(=N)N=C(N)N [Metformin] | – | – | inhibition of oxygen consumption / mitochondrial function in vitro [1]: effective at inhibiting oxygen consumption
42 | Cc1cccc(CN2CCN(C(c3ccccc3)c3ccc(Cl)cc3)CC2)c1 (centres unmarked) [meclizine] | – | – | inhibition of oxygen consumption / mitochondrial function in vitro [1]: effective at inhibiting oxygen consumption
43 | [H]/N=C(/N)N/C(=N/[H])NCCc1ccccc1 [phenformin] | – | – | inhibition of oxygen consumption / mitochondrial function in vitro [1]: effective at inhibiting oxygen consumption
44 | COc1ccccc1OCC(O)CN1CCN(CC(=O)Nc2c(C)cccc2C)CC1 (centres unmarked) [ranolazine] | – | – | inhibition of oxygen consumption / mitochondrial function in vitro [1]: effective at inhibiting oxygen consumption
45 | C=C(C)[C@H]1Cc2c(ccc3c2O[C@@H]2COc4cc(OC)c(OC)cc4[C@@H]2C3=O)O1 [rotenone] | 0 % of PPV | 193 % of PPV | reversibility of OCR inhibition in washout (A549 cells): no restoration in 3 hours; also recorded: irreversible inhibitor; response of mitochondria (OCR) to drug [2]: resistant
